According to patent publication US8530459B2, “Swallowtail motifs for imparting water solubility to porphyrinic compounds” (North Carolina State University, priority 2005, dated 2013):

Key:
Assay type in all cases: physicochemical
[1] = Stability of porphyrin-phosphate in protic solvent monitored by 1H NMR and LD-MS; conditions: mixture of CDCl3/CD3OD
Excerpt: Porphyrin 12a contains both the bioconjugatable site and the water-solubilizing groups, masked by tert-butyl and methyl esters, respectively. Attempts at the simultaneous removal of the tert-butyl and methyl ester protecting groups with TMS-Br were unsuccessful. […] This compound is identical to 15b (vide infra). […] The following observations were made: • (1) The crude porphyrin-phosphates, while displaying excellent water-solubility initially, precipitated out of solution within minutes. • (2) Because TMS-Br removed some of the zinc, remetalation was attempted with zinc acetate. […] Most (but not all) of the precipitate could be redissolved in concentrated (15 wt %) aqueous NaOH. • (3) When 12b was treated with TMS-Br in the presence of TEA to suppress demetalation,^27 the deprotected porphyrin-diol 11b was not formed until the addition of a protic solvent. During the work-up, 11b formed in quantitative yield, as determined by ^1H NMR spectroscopy and LD-MS [obsd m/z 567, calcd 566 for demetalated (M+H)^+] of the purified sample. • (4) A sample of 12b in a mixture of CDCl3/CD3OD was monitored by ^1H NMR and LD-MS. Within 8 h the formation of porphyrin 11b was almost quantitative (obsd m/z 566, disappearance of phosphate methyl ester singlets). • (5) Basic hydrolysis (H2O/MeOH, NaOH, various concentrations) removed only two of the methyl esters, but none of 11b was formed.

[2] = Stability of aqueous porphyrin solutions (naked eye, absorption spectroscopy); conditions: for precipitation or aggregation of aqueous solutions: naked eye or absorption spectroscopy; for stability of aqueous solutions: room temperature, shielded from the light
[3] = Water-solubility of pure porphyrin in distilled water; conditions: thermodynamic from solid; 8-10 mg of pure porphyrin completely dissolved in 300 μL of distilled water; upper limit not determined; read-out: water-solubility (concentration)
Method: Determination of the upper limit of water-solubility was not possible due to the lack of material; however, in each case examined, 8-10 mg of pure porphyrin (14b, 17b, Zn17b, 17a, Zn17a) completely dissolved in 300 μL of distilled water, consistent with a concentration of >20 mM.

[4] = Solubility in organic solvents
Excerpt: Reaction of 11a with dimethyl chlorophosphate in anhydrous pyridine gave no 12a, whereas similar reaction with 11b gave a very low yield of 12b. The poor yields are presumably due to the combination of low solubility and low reactivity on the part of the porphyrin-diol starting materials. We assumed that incorporation of the dimethoxyphosphoryl groups at an earlier stage could provide a more efficient process.

time to almost quantitative formation of porphyrin 11b (loss of phosphate groups) [1] [h] | stability of aqueous solutions [2] | solubility [3] [mM] | Compound | precipitation or aggregation of aqueous solutions [2] | solubility in most organic solvents [4]
≤ 8 |  |  | COP(=O)(OC)OCCC(CCOP(=O)(OC)OC)c1c2nc(cc3ccc([n-]3)c(-c3ccc(Br)cc3)c3nc(cc4ccc1[n-]4)C=C3)C=C2.[Zn+2] [12b, Zn(II)-5-(4-Bromophenyl)-15-[1,5-bis(dimethoxyphosphoryloxy)pent-3-yl]porphyrin] |  | 
 | stable for days | > 20 | O=P(O)(O)OCCC(CCOP(=O)(O)O)c1c2nc(cc3ccc([nH]3)c(-c3ccc(Br)cc3)c3nc(cc4ccc1[nH]4)C=C3)C=C2 [14b, 5-(4-Bromophenyl)-15-(1,5-bis[dihydroxyphosphoryloxy)pent-3-yl]porphyrin] | Neither precipitation nor aggregation was observed | 
 | stable for days | > 20 | O=C(O)COc1ccc(-c2c3nc(cc4ccc([nH]4)c(C(CCP(=O)(O)O)CCP(=O)(O)O)c4nc(cc5ccc2[nH]5)C=C4)C=C3)cc1 [17a, 5-(4-(Carboxymethoxy)phenyl)-15-[1,5-bis(dihydroxyphosphoryl)pent-3-yl]porphyrin] | Neither precipitation nor aggregation was observed | 
 | stable for days | > 20 | O=P(O)(O)CCC(CCP(=O)(O)O)c1c2nc(cc3ccc([nH]3)c(-c3ccc(Br)cc3)c3nc(cc4ccc1[nH]4)C=C3)C=C2 [17b, 5-(4-Bromophenyl)-15-[1,5-bis(dihydroxyphosphoryl)pent-3-yl]porphyrin] | Neither precipitation nor aggregation was observed | 
 | stable for days |  | O=C(O)COc1ccc(-c2c3nc(cc4ccc([n-]4)c(C(CCP(=O)(O)O)CCP(=O)(O)O)c4nc(cc5ccc2[n-]5)C=C4)C=C3)cc1.[Zn+2] [Zn17a, Zn(II)-5-(4-(Carboxymethoxy)phenyl)-15-[1,5-bis(dihydroxyphosphoryl)pent-3-yl]porphyrin] | Neither precipitation nor aggregation was observed | 
 |  |  | Zn(II)-5-(4-Bromophenyl)-15-(1,5-dihydroxypent-3-yl)porphyrin [11b] |  | only sparingly soluble
 | stable for days |  | Zn(II)-5-(4-Bromophenyl)-15-[1,5-bis(dihydroxyphosphoryl)pent-3-yl]porphyrin [Zn17b] | Neither precipitation nor aggregation was observed | 
 |  |  | Zn(II)-5-(4-tert-Butoxycarbonylmethoxyphenyl)-5-(1,5-dihydroxypent-3-yl)-porphyrin [11a] |  | only sparingly soluble
